The subject of the assay is patients with moderate to severe symptomatic benign prostatic hyperplasia (BPH). In words: Prospective assessment of need for subsequent invasive surgical intervention in BPH patients after NX-1207 injection. Format: in vivo, human. Here is the method:
645 patients (Group #1) with moderate to severe symptomatic benign prostatic hyperplasia (BPH) were prospectively randomly assigned to blinded treatment with a single therapeutic injection of NX-1207 or placebo (saline vehicle alone), and their clinical BPH signs and symptoms were assessed at weekly, monthly, 3-monthly or longer intervals, for durations of a few months to 5.5 years. None of these patients had received any prior invasive surgical procedures to treat their BPH condition. A prospective assessment was undertaken of all available subjects>=2 years after baseline to determine the usefulness of NX-1207 treatment for the prevention or the delay of the need for surgical procedures (i.e., subsequent invasive surgical intervention) to treat the patient's BPH condition. Patients who received placebo and no drug treatment progressed to invasive surgical procedures within 2 years of baseline in 7.65% of patients.
352 patients (Group #2) who were randomized and blindly treated with NX-1207 or placebo at the same time as Group #1 in Example 1, in addition to the initial treatment, were given a second treatment injection of NX-1207 at intervals of >=1 year after the initial randomization. None of these patients had received any prior invasive surgical procedures to treat their BPH condition. A prospective assessment was undertaken of all available subjects>=2 years after baseline to determine the usefulness of NX-1207 treatment for the prevention or the delay of the need for invasive surgical intervention to treat the patient's BPH condition.
Patients in Examples 1 and 2 were characterized as to whether they had previous treatment failures with conventional oral medications (i.e. “treatment failure”) vs whether they had not received any previous conventional oral medications for their BPH condition (i.e., “treatment naïve”). A prospective assessment was undertaken of all available subjects>=2 years after baseline to determine the usefulness of NX-1207 treatment for the prevention or the delay of the need for subsequent invasive surgical intervention to treat the patient's BPH condition.
In the above examples, the amount of NX-1207 administered was 2.5 mg.

For “IDQQVLSRIKLEIKRCL [NX-1207, NTP peptide injected once or twice (2.5 mg) in BPH patients]”, under “administered twice”, the “improvement in reducing the need for subsequent invasive surgical intervention, compared to patients who received a single injection” value was about 69% and the “improvement in reducing the need for subsequent invasive surgical intervention, compared to patients who received the placebo” value is listed as about 80%. The “need for subsequent invasive surgical intervention” value (previous treatment failure subjects, assessed >=2 years after baseline, treatment failure placebo 10.4%) turned out to be 6.1%. Further, the “rate of need for invasive surgical procedures” value (second injection >=1 year after initial randomization, assessed >=2 years after baseline, p<0.001 vs placebo 7.65%, p<0.01 vs single injection 5.1%) worked out at 1.6%. Besides, where the note is “single therapeutic injection, 2.5 mg”, the “reduced rate of invasive surgical procedures within 2 years, compared to placebo” value is 33.3%. The “patients progressed to invasive surgical procedures within 2 years of baseline” value (single therapeutic injection, 2.5 mg, BPH patients, no prior invasive surgery, placebo 7.65%) turned out to be 5.1%. Under “treatment naive patients”, the “improvement in reducing the need for subsequent invasive surgical intervention, compared to patients who received the placebo” value is about 88%; the “improvement in reducing the need for subsequent invasive surgical intervention, compared to treatment failure patients who received the NTP peptide” value was about 85%; the “improvement in reducing the need for subsequent invasive surgical intervention, compared to treatment failure patients who received the placebo” value is recorded as about 91%. For the setting “treatment naïve patients, assessed >=2 years after baseline, placebo controls 7.5%, p<0.01”, the “need for invasive surgical procedures” value came out at 0.9%.

Source of the values: patent US11628202B2, “Methods of reducing the need for surgery in patients suffering from benign prostatic hyperplasia” (Nymox Corporation, priority 2015, dated 2023).
